Assays:
[1] = biological target: RAC-gamma serine/threonine-protein kinase (Homo sapiens) (UniProt Q9Y243); conditions: Compound concentration 100.0 nM
[2] = biological target: Serine/threonine-protein kinase NLK (Homo sapiens) (UniProt Q9UBE8); conditions: Compound concentration 100.0 nM
[3] = tested on: Tyrosine-protein kinase ABL1 (Homo sapiens), P00519 [F317I]; conditions: Compound concentration 100.0 nM
[4] = biological target: SRSF protein kinase 2 (Homo sapiens) (UniProt P78362); conditions: Compound concentration 100.0 nM
Chain of SRSF protein kinase 2 (Homo sapiens) (P78362 whole entry, looked up): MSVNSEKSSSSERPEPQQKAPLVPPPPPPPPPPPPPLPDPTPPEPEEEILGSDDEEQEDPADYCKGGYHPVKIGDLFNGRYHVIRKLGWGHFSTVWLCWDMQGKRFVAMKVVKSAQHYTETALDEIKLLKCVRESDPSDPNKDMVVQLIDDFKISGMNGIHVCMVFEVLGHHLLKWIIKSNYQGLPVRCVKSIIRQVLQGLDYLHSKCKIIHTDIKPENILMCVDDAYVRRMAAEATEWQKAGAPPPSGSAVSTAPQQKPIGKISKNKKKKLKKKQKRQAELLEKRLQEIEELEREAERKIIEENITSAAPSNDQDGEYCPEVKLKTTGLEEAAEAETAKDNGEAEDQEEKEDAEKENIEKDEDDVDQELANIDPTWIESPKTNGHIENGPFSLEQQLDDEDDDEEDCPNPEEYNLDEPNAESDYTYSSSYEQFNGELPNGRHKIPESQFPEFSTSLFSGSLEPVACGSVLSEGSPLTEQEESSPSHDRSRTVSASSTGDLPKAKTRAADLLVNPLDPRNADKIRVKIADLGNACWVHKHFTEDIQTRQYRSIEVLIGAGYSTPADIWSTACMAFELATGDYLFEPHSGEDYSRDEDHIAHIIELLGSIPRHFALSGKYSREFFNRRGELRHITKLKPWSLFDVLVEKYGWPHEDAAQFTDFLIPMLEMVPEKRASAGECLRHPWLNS

[5] = biological target: BMP-2-inducible protein kinase (Homo sapiens) (UniProt Q9NSY1); conditions: Compound concentration 100.0 nM
Chain of BMP-2-inducible protein kinase (Homo sapiens) (Q9NSY1 whole entry, looked up): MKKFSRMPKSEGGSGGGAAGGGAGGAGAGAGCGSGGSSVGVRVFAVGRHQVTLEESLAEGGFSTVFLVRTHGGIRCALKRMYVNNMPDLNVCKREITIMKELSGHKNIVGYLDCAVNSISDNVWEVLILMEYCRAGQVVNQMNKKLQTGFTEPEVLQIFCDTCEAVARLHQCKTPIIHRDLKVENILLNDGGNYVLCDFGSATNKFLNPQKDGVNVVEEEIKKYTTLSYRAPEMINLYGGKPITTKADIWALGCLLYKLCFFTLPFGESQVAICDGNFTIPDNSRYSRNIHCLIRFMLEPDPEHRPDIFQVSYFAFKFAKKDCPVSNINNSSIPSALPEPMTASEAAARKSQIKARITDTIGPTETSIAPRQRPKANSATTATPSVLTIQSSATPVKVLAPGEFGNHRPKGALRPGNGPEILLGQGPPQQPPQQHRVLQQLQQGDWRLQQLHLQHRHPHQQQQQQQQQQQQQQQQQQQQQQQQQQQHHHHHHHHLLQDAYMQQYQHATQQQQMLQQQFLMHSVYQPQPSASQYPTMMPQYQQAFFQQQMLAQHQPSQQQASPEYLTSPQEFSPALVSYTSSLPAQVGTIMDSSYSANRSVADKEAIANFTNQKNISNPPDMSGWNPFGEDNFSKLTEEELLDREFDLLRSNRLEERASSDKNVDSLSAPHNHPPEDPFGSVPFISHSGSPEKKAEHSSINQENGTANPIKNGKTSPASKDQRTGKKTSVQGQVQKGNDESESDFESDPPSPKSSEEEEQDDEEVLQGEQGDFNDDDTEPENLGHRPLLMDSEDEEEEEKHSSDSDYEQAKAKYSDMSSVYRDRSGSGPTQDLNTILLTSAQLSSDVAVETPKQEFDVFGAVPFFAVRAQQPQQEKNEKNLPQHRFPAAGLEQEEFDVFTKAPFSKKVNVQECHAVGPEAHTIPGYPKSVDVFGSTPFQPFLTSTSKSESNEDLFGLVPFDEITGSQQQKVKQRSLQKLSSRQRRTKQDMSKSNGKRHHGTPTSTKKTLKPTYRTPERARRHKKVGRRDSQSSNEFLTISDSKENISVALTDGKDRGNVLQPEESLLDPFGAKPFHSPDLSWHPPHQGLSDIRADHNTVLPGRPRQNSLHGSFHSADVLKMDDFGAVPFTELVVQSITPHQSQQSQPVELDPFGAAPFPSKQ

[6] = biological target: Atypical kinase COQ8A, mitochondrial (Homo sapiens) (UniProt Q8NI60); conditions: Compound concentration 100.0 nM
[7] = biological target: Histamine H2 receptor (Homo sapiens) (UniProt P25021); conditions: Compound concentration 10.0 uM
[8] = biological target: T1, Serine/threonine-protein kinase D2 (Homo sapiens) (UniProt Q9BZL6); conditions: Compound concentration 100.0 nM
T1 sequence (whole entry): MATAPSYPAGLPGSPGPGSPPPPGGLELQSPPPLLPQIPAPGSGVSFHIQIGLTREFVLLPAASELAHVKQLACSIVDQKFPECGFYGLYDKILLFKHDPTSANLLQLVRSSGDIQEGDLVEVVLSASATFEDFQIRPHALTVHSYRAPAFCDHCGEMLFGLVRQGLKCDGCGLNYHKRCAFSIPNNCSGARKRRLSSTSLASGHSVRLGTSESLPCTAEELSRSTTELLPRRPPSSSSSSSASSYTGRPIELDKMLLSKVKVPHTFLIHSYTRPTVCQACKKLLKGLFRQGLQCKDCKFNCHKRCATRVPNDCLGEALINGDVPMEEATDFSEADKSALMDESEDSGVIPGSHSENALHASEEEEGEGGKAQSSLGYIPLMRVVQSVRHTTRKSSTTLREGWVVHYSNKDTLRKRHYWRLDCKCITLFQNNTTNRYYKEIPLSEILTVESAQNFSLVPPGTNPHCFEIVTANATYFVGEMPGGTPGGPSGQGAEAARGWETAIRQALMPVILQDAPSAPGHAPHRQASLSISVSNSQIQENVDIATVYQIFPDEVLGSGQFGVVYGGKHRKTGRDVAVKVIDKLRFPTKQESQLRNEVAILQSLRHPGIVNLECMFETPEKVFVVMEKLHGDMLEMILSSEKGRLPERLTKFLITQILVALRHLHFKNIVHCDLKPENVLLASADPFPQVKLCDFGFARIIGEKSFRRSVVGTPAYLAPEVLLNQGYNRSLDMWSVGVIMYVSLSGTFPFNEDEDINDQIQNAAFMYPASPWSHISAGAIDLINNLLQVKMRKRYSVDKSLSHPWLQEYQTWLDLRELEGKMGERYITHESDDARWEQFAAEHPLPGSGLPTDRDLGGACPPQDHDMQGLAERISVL

[9] = biological target: NUAK family SNF1-like kinase 2 (Homo sapiens) (UniProt Q9H093); conditions: Compound concentration 100.0 nM
Chain of NUAK family SNF1-like kinase 2 (Homo sapiens) (Q9H093 whole entry): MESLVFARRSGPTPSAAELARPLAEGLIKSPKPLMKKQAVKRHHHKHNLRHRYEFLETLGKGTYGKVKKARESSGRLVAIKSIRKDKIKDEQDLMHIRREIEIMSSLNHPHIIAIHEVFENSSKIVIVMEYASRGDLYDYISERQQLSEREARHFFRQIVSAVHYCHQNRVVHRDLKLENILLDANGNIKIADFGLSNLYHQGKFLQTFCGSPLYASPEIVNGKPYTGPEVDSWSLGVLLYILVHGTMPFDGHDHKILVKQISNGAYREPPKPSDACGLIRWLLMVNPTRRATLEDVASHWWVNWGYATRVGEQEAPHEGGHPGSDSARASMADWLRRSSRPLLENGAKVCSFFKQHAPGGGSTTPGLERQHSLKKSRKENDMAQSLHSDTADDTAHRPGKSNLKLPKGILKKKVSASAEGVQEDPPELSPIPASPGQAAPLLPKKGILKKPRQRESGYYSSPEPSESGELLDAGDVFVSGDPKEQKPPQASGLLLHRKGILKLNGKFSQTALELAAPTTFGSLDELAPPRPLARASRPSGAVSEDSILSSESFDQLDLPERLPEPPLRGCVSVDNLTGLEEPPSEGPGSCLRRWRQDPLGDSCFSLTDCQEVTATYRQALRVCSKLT

[10] = biological target: Ephrin type-B receptor 3 (Homo sapiens) (UniProt P54753); conditions: Compound concentration 100.0 nM
[11] = biological target: Tyrosine-protein kinase Yes (Homo sapiens) (UniProt P07947); conditions: Compound concentration 100.0 nM
[12] = biological target: cGMP-dependent protein kinase 2 (Homo sapiens) (UniProt Q13237); conditions: Compound concentration 100.0 nM
[13] = biological target: SRSF protein kinase 1 (Homo sapiens) (UniProt Q96SB4); conditions: Compound concentration 100.0 nM
Chain of SRSF protein kinase 1 (Homo sapiens) (Q96SB4 whole entry): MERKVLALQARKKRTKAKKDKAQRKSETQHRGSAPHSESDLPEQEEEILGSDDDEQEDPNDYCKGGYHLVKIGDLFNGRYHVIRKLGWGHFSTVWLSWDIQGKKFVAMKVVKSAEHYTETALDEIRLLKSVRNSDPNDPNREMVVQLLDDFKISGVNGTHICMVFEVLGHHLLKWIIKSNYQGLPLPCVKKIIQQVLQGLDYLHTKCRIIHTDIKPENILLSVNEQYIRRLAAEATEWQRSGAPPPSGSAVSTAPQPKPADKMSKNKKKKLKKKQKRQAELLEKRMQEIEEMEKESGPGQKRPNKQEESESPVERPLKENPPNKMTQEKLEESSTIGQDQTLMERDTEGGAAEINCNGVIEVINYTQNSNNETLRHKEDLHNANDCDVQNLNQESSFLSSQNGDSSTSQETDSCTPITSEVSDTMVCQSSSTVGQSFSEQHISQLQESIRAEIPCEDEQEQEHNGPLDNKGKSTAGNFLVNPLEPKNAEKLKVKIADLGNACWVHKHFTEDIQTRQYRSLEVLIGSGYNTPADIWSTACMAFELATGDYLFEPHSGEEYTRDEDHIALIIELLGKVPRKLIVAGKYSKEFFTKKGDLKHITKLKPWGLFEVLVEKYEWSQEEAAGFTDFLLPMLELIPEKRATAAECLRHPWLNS

[14] = biological target: Tyrosine-protein kinase Mer (Homo sapiens) (UniProt Q12866); conditions: Compound concentration 100.0 nM
[15] = biological target: Ephrin type-B receptor 1 (Homo sapiens) (UniProt P54762); conditions: Compound concentration 100.0 nM
[16] = biological target: Mitogen-activated protein kinase kinase kinase 14 (Homo sapiens) (UniProt Q99558); conditions: Compound concentration 100.0 nM
[17] = biological target: Activated CDC42 kinase 1 (Homo sapiens) (UniProt Q07912); conditions: Compound concentration 100.0 nM
[18] = biological target: Cyclin-dependent kinase 2 homolog (Plasmodium falciparum (isolate 3D7)) (UniProt P61075); conditions: Compound concentration 100.0 nM
[19] = biological target: Insulin receptor-related protein (Homo sapiens) (UniProt P14616); conditions: Compound concentration 100.0 nM
[20] = biological target: Calcium/calmodulin-dependent protein kinase type II subunit alpha (Homo sapiens) (UniProt Q9UQM7); conditions: Compound concentration 100.0 nM
[21] = biological target: Mast/stem cell growth factor receptor Kit (Homo sapiens) (UniProt P10721); conditions: Compound concentration 100.0 nM
[22] = biological target: TGF-beta receptor type-2 (Homo sapiens) (UniProt P37173); conditions: Compound concentration 100.0 nM
[23] = biological target: Mitogen-activated protein kinase kinase kinase 3 (Homo sapiens) (UniProt Q99759); conditions: Compound concentration 100.0 nM
Chain of Mitogen-activated protein kinase kinase kinase 3 (Homo sapiens) (Q99759 whole entry): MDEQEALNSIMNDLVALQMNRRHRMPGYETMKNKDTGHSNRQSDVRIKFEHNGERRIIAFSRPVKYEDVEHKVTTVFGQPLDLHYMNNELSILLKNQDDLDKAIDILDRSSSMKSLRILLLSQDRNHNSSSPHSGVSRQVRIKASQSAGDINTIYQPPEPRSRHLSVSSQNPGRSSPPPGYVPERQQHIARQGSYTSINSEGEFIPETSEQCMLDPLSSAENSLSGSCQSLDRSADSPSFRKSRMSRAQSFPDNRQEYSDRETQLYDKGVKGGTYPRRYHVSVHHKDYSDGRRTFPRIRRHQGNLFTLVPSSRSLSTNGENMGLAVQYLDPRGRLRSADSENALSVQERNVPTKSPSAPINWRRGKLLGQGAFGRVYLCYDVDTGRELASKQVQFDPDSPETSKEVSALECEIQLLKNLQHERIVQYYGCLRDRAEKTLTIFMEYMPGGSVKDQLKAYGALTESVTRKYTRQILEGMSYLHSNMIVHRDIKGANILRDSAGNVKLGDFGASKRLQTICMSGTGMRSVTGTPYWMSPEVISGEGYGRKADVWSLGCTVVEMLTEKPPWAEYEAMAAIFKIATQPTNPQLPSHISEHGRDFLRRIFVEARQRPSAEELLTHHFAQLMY

[24] = biological target: cGMP-dependent protein kinase 1 (Homo sapiens) (UniProt Q13976); conditions: Compound concentration 100.0 nM
[25] = biological target: Sigma non-opioid intracellular receptor 1 (Homo sapiens, UniProt Q99720); conditions: Compound concentration 10.0 uM
Chain of Sigma non-opioid intracellular receptor 1 (Q99720 whole entry): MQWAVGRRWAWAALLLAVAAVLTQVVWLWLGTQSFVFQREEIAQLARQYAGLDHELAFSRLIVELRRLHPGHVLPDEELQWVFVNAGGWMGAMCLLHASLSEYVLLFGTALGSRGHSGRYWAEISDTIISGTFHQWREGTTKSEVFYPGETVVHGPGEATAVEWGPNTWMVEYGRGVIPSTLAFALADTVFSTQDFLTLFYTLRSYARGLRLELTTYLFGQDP

[26] = biological target: Focal adhesion kinase 1 (Homo sapiens) (UniProt Q05397); conditions: Compound concentration 100.0 nM
Chain of Focal adhesion kinase 1 (Homo sapiens) (Q05397 2-1052 limits assumed): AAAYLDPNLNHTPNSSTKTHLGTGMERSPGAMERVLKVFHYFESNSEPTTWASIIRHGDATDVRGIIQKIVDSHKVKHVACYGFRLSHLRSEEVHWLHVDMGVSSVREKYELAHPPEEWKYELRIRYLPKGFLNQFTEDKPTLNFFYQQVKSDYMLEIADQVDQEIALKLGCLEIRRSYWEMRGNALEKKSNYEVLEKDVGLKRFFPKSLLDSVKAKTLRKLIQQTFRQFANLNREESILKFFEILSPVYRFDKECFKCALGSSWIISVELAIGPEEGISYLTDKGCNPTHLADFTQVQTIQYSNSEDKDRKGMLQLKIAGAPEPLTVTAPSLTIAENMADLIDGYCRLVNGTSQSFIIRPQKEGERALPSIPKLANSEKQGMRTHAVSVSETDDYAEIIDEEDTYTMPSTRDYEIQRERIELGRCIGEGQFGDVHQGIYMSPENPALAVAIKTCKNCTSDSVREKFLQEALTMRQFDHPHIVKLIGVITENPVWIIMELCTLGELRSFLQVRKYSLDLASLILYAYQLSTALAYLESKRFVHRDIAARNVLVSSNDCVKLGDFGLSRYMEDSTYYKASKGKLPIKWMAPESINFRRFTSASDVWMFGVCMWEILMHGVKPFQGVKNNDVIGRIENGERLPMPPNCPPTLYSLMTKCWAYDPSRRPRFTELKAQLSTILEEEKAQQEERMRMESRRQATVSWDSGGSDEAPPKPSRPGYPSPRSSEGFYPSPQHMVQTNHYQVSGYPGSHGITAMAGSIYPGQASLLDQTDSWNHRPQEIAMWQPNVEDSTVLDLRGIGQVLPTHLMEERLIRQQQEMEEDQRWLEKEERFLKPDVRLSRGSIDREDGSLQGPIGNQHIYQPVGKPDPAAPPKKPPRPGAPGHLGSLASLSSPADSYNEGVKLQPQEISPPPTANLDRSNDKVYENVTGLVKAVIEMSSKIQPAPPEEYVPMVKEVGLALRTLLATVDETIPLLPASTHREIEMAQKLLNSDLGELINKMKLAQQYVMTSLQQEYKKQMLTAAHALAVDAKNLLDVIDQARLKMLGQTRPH

[27] = biological target: Serine/threonine-protein kinase Nek4 (Homo sapiens) (UniProt P51957); conditions: Compound concentration 100.0 nM
[28] = biological target: Serine/threonine-protein kinase TAO3 (Homo sapiens) (UniProt Q9H2K8); conditions: Compound concentration 100.0 nM
[29] = biological target: Serine/threonine-protein kinase 36 (Homo sapiens) (UniProt Q9NRP7); conditions: Compound concentration 100.0 nM
[30] = biological target: Macrophage-stimulating protein receptor (Homo sapiens) (UniProt Q04912); conditions: Compound concentration 100.0 nM
[31] = biological target: Myosin light chain kinase (Homo sapiens) (UniProt Q32MK0); conditions: Compound concentration 100.0 nM

Work on `Cc1c[nH]c2nccc(Oc3c(F)cc(Nc4cc(Cl)nc(N)n4)cc3F)c12` [BAY-549] yielded a residual activity [1] of 78%, a residual activity [2] of 100% and a residual activity [3] of 100%. The residual activity [4] was 75%, the residual activity [5] was 100% and the residual activity [6] was 100%. For the same compound, the inhibition [7] was 23.7%, the residual activity [8] was 94% and the residual activity [9] was 85%. It also gave a residual activity [10] of 100%, a residual activity [11] of 96% and a residual activity [12] of 90%. It also gave a residual activity [13] of 100%, a residual activity [14] of 100% and a residual activity [15] of 86%. It also gave a residual activity [16] of 92%, a residual activity [17] of 95% and a residual activity [18] of 72%. For the same compound, the residual activity [19] was 91%, the residual activity [20] was 70% and the residual activity [21] was 77%. For the same compound, the residual activity [22] was 100%, the residual activity [23] was 99% and the residual activity [24] was 49%. For the same compound, the inhibition [25] was 54.8%, the residual activity [26] was 100% and the residual activity [27] was 90%. It also gave a residual activity [28] of 100%, a residual activity [29] of 85% and a residual activity [30] of 74%. It also gave a residual activity [31] of 91%.
Compound `Cn1cc(Cl)c2c(Oc3c(F)cc(Nc4cc(Cl)nc(N)n4)cc3F)ccnc21` [BAY-4900] has a residual activity [1] of 98%, a residual activity [2] of 100% and a residual activity [3] of 93%. It also gave a residual activity [4] of 78%, a residual activity [5] of 100% and a residual activity [6] of 100%. The inhibition [7] was 16.7%, the residual activity [8] was 91% and the residual activity [9] was 85%. It also gave a residual activity [10] of 100%, a residual activity [11] of 93% and a residual activity [12] of 83%. For the same compound, the residual activity [13] was 85%, the residual activity [14] was 90% and the residual activity [15] was 96%. For the same compound, the residual activity [16] was 100%, the residual activity [17] was 85% and the residual activity [18] was 68%. It also gave a residual activity [19] of 100%, a residual activity [20] of 82% and a residual activity [21] of 78%. The residual activity [22] was 90%, the residual activity [23] was 90% and the residual activity [24] was 83%. It also gave an inhibition [25] of 22.3%, a residual activity [26] of 100% and a residual activity [27] of 84%. The residual activity [28] was 100%, the residual activity [29] was 93% and the residual activity [30] was 87%. It also gave a residual activity [31] of 94%.

— ChEMBL document CHEMBL4507274 (2021)
